{"source": "PubChem BioAssay (NCI)", "assay_in_all_cases": "NCI-60 cell line screen, 48 h", "key": {"[1]": {"tested_on": "DU-145 prostate"}, "[2]": {"tested_on": "PC-3 prostate"}, "[3]": {"tested_on": "SR leukemia"}, "[4]": {"tested_on": "MALME-3M melanoma"}, "[5]": {"tested_on": "RPMI-8226 leukemia"}, "[6]": {"tested_on": "MOLT-4 leukemia"}, "[7]": {"tested_on": "HCT-15 colon"}, "[8]": {"tested_on": "SK-MEL-28 melanoma"}, "[9]": {"tested_on": "UACC-62 melanoma"}, "[10]": {"tested_on": "SK-MEL-2 melanoma"}}, "note": "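Five compound concentrations were applied to cells in 96-well plates for 48 hours; endpoints were derived by simple linear interpolation of the resulting dose-response curve. GI50 is the concentration that inhibits growth by half. Definition used: TGI = concentration required for complete inhibition of growth.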"}
{"smiles": "O=C1CCCC1C(O)(C(F)(F)Cl)C(F)(F)Cl", "note": "(stereo unspecified)", "values": [{"measurement": "TGI", "setting": "[1]", "result": "> 10", "unit": "µM"}, {"measurement": "TGI", "setting": "[2]", "result": "> 10", "unit": "µM"}, {"measurement": "TGI", "setting": "[3]", "result": "> 10", "unit": "µM"}, {"measurement": "TGI", "setting": "[4]", "result": "> 10", "unit": "µM"}, {"measurement": "TGI", "setting": "[5]", "result": "> 10", "unit": "µM"}, {"measurement": "TGI", "setting": "[6]", "result": "> 10", "unit": "µM"}, {"measurement": "TGI", "setting": "[7]", "result": "> 10", "unit": "µM"}, {"measurement": "TGI", "setting": "[8]", "result": "> 10", "unit": "µM"}, {"measurement": "TGI", "setting": "[9]", "result": "> 10", "unit": "µM"}, {"measurement": "TGI", "setting": "[10]", "result": "> 10", "unit": "µM"}]}
{"smiles": "O=C1/C=C/[C@@H](O)[C@@H]2C[C@@H](O)C[C@H]2/C=C/CCCCO1", "values": [{"measurement": "GI50", "setting": "[1]", "result": 0.857, "unit": "µM"}, {"measurement": "TGI", "setting": "[1]", "result": "> 100", "unit": "µM"}, {"measurement": "GI50", "setting": "[2]", "result": 0.417, "unit": "µM"}, {"measurement": "TGI", "setting": "[2]", "result": "> 100", "unit": "µM"}, {"measurement": "GI50", "setting": "[3]", "result": 8.61, "unit": "µM"}, {"measurement": "TGI", "setting": "[3]", "result": "> 100", "unit": "µM"}, {"measurement": "GI50", "setting": "[4]", "result": 0.321, "unit": "µM"}, {"measurement": "TGI", "setting": "[4]", "result": 3.24, "unit": "µM"}, {"measurement": "GI50", "setting": "[5]", "result": 0.248, "unit": "µM"}, {"measurement": "TGI", "setting": "[5]", "result": 0.889, "unit": "µM"}, {"measurement": "GI50", "setting": "[6]", "result": 1.4, "unit": "µM"}, {"measurement": "GI50", "setting": "[7]", "result": 0.364, "unit": "µM"}, {"measurement": "GI50", "setting": "[8]", "result": 0.28, "unit": "µM"}, {"measurement": "GI50", "setting": "[9]", "result": 0.416, "unit": "µM"}, {"measurement": "TGI", "setting": "[9]", "result": "> 100", "unit": "µM"}, {"measurement": "GI50", "setting": "[10]", "result": 0.257, "unit": "µM"}]}
{"smiles": "CC/C(=C(/c1ccc(Cl)cc1)c1ccc(OCCCN(C)C)cc1)c1ccc(OC)cc1", "values": [{"measurement": "GI50", "setting": "[1]", "result": 3.48, "unit": "µM"}, {"measurement": "TGI", "setting": "[1]", "result": 10.1, "unit": "µM"}, {"measurement": "GI50", "setting": "[2]", "result": 1.12, "unit": "µM"}, {"measurement": "TGI", "setting": "[2]", "result": 2.71, "unit": "µM"}, {"measurement": "GI50", "setting": "[3]", "result": 0.983, "unit": "µM"}, {"measurement": "TGI", "setting": "[3]", "result": 2.27, "unit": "µM"}, {"measurement": "GI50", "setting": "[4]", "result": 1.2, "unit": "µM"}, {"measurement": "TGI", "setting": "[4]", "result": 2.67, "unit": "µM"}, {"measurement": "GI50", "setting": "[5]", "result": 1.17, "unit": "µM"}, {"measurement": "TGI", "setting": "[5]", "result": 2.54, "unit": "µM"}, {"measurement": "GI50", "setting": "[6]", "result": 1.05, "unit": "µM"}, {"measurement": "TGI", "setting": "[6]", "result": 2.53, "unit": "µM"}, {"measurement": "GI50", "setting": "[7]", "result": 1.44, "unit": "µM"}, {"measurement": "TGI", "setting": "[7]", "result": 5.08, "unit": "µM"}, {"measurement": "GI50", "setting": "[8]", "result": 1.33, "unit": "µM"}, {"measurement": "TGI", "setting": "[8]", "result": 3.84, "unit": "µM"}, {"measurement": "GI50", "setting": "[9]", "result": 1.14, "unit": "µM"}, {"measurement": "TGI", "setting": "[9]", "result": 2.5, "unit": "µM"}, {"measurement": "GI50", "setting": "[10]", "result": 8.01, "unit": "µM"}, {"measurement": "TGI", "setting": "[10]", "result": 15.6, "unit": "µM"}]}
{"smiles": "Cn1cc(C2=C(c3cn(CCCN/C(N)=N\\[N+](=O)[O-])c4ccccc34)C(=O)NC2=O)c2ccccc21", "values": [{"measurement": "GI50", "setting": "[1]", "result": 6.75, "unit": "µM"}, {"measurement": "TGI", "setting": "[1]", "result": 23.6, "unit": "µM"}, {"measurement": "GI50", "setting": "[2]", "result": 3.36, "unit": "µM"}, {"measurement": "TGI", "setting": "[2]", "result": 17.2, "unit": "µM"}, {"measurement": "GI50", "setting": "[3]", "result": 0.898, "unit": "µM"}, {"measurement": "TGI", "setting": "[3]", "result": 3.96, "unit": "µM"}, {"measurement": "GI50", "setting": "[4]", "result": 6.38, "unit": "µM"}, {"measurement": "TGI", "setting": "[4]", "result": 15.9, "unit": "µM"}, {"measurement": "GI50", "setting": "[5]", "result": 5.64, "unit": "µM"}, {"measurement": "TGI", "setting": "[5]", "result": 14.8, "unit": "µM"}, {"measurement": "GI50", "setting": "[6]", "result": 2.25, "unit": "µM"}, {"measurement": "TGI", "setting": "[6]", "result": "> 16.4", "unit": "µM"}, {"measurement": "GI50", "setting": "[7]", "result": 19.8, "unit": "µM"}, {"measurement": "TGI", "setting": "[7]", "result": "> 25", "unit": "µM"}, {"measurement": "GI50", "setting": "[8]", "result": 3.38, "unit": "µM"}, {"measurement": "TGI", "setting": "[8]", "result": 18.5, "unit": "µM"}, {"measurement": "GI50", "setting": "[9]", "result": 3.1, "unit": "µM"}, {"measurement": "TGI", "setting": "[9]", "result": 7.59, "unit": "µM"}, {"measurement": "GI50", "setting": "[10]", "result": 0.614, "unit": "µM"}, {"measurement": "TGI", "setting": "[10]", "result": 2.23, "unit": "µM"}]}
{"smiles": "c1ccc2c(c1)-c1nc3ccccc3cc1C2N1CCOCC1", "note": "(stereo unspecified)", "values": [{"measurement": "TGI", "setting": "[1]", "result": "> 100", "unit": "µM"}, {"measurement": "TGI", "setting": "[2]", "result": "> 100", "unit": "µM"}, {"measurement": "TGI", "setting": "[3]", "result": "> 100", "unit": "µM"}, {"measurement": "TGI", "setting": "[4]", "result": "> 100", "unit": "µM"}, {"measurement": "TGI", "setting": "[5]", "result": "> 100", "unit": "µM"}, {"measurement": "TGI", "setting": "[6]", "result": "> 100", "unit": "µM"}, {"measurement": "TGI", "setting": "[7]", "result": "> 100", "unit": "µM"}, {"measurement": "TGI", "setting": "[8]", "result": "> 100", "unit": "µM"}, {"measurement": "TGI", "setting": "[9]", "result": "> 100", "unit": "µM"}, {"measurement": "TGI", "setting": "[10]", "result": "> 100", "unit": "µM"}]}
